# Patent US20200383985A1, “Inhibitors of Protease Activated Receptor-2” (Endosome Therapeutics, Inc., priority 2017, published 2020)
# Values joined by “and” are separate entries in the source; they are usually repeats but may differ in a detail not shown here. Identical values can stand only once. Like-named read-outs stand apart in the source and are kept apart here.
# Key:
# [1] = molecular target: T1, human (h) PAR2 (Homo sapiens, UniProt P55085); experiment: IP1 accumulation assay in KNRK-hPAR2 cells; assay type: cell-based
# T1 construct: expressed in transfected cells; host or cells: KNRK cells (KNRK-hPAR2)
# T1 sequence (P55085 26-397): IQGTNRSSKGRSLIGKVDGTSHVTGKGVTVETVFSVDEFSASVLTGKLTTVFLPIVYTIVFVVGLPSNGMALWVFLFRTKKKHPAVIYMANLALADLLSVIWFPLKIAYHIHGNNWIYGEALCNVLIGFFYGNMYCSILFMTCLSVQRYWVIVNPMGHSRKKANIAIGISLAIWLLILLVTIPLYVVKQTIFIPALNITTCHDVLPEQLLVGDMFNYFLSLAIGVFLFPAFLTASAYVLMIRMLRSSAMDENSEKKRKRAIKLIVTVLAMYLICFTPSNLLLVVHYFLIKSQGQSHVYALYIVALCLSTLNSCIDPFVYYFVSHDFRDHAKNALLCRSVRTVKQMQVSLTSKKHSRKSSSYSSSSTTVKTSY
# [2] = molecular target: T2, PAR2 (Homo sapiens, UniProt P55085); experiment: IP1 accumulation assay in HT-29 cells (endogenous PAR2); assay type: cell-based; settings: 2F (300 nM)-induced IP1, HT-29 cells; read-out: HT-29 300 nM 2F pIC50 ± SEM (converted)
# T2 construct: HT-29 cells and HEK293 cells, which express endogenous PAR2; endogenous in cells; host or cells: HT-29
# T2 sequence (P55085 26-397): T1 sequence (P55085 26-397)
# Summary of the method: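 KNRK-hPAR2 or HT-29 cells (50×10³/well, 24 h) in LiCl-containing stimulation buffer, pre-incubated with antagonist 30 min at 37 °C, then stimulated 40 min with 2F at 100 or 300 nM (EC80) or 10 μM ATP. IP1 in lysate quantified by HTRF; IC50 from concentration-response.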
# [3] = test system: DRG neurons; experiment: Ca2+ assays in DRG neurons; assay type: cell-based, mouse; settings: trypsin 100 nM
# Text: Proteases may induce pain by activating PAR2 on nociceptors or other cell types. To determine the contribution of PAR2 on nociceptors, mice were bred expressing PAR2 flanked by LoxP sites (Par2^lox/lox) with mice expressing Cre recombinase targeted to nociceptors using the NaV1.8 promoter (Scn10a) (Stirling L. C. et al., Pain 2005, 113(1-2): 27-36). Par2-NaV1.8 mice lacked immunoreactive PAR2 in NaV1.8-positive nociceptors (FIG. 1A). Whereas 31% (20 of 65) of small-diameter (<25 μm) DRG neurons from WT mice responded to trypsin (100 nM) with increased [Ca^2+]i, only 6% (3 of 51) of neurons from Par2-NaV1.8 mice responded (FIGS. 1B, 11A, and 11B). Nociception was assessed by measuring withdrawal responses to stimulation of the plantar surface of the hindpaw with von Frey filaments. […] In Par2-NaV1.8 mice, the initial responses were maintained, but responses after 120 min were diminished. […] Trypsin-induced inflammation was markedly diminished in Par2-NaV1.8 mice.
# [Ca^2+]i was measured in DRG neurons from WT and Par2-NaV1.8 mice, as described (Tsvetanova, N. G., et al., Nat. Chem. Biol. 2014, 10(12): 1061-1065). […] Fluorescence of individual neurons was measured at 340 nm and 380 nm excitation and 530 nm using a Nikon Eclipse Ti microscope with 20× magnification and a Photometrics CoolSNAP camera. Data were analyzed using Nikon Ti Element Software. […]
"IC50 ([1]; 2F (100 nM)-induced IP1, KNRK-hPAR2 cells, read-out: KNRK-PAR2 100 nM 2F (IC50))","IC50 ([1]; trypsin (30 nM), read-out: IC50, trypsin-induced IP1 in KNRK-hPAR2 cells)","IC50 ([1]; trypsin (30 nM), read-out: pIC50, trypsin-induced IP1 in KNRK-hPAR2 cells (converted))",IC50 [2],Compound,"small-diameter DRG neurons responding with increased [Ca2+]i, Par2-NaV1.8 mice ([3]; 3 of 51 neurons)","small-diameter DRG neurons responding with increased [Ca2+]i, WT mice ([3]; 20 of 65 neurons)"
666 nM,7510 nM,7410 nM,1.17 nM and 1.1 nM,"Cc1nc(C(=O)N2CCN(C(=O)c3cn4nc(-c5ccc(F)cc5)cc(C(C)(C)C)c4n3)C(C)(C)C2)n[nH]1 [Compound I-343, (8-(tert-butyl)-6-(4-fluorophenyl)imidazo[1,2-b]pyridazin-2-yl)(2,2-dimethyl-4-(5-methyl-1H-1,2,4-triazole-3-carbonyl)piperazin-1-yl)methanone]",–,–
–,–,–,–,trypsin,6%,31%
